The nature of data set [1]: logD by shake flask method (octanol / PBS pH 7.4, HPLC). Format: physicochemical. Particulars: octanol / PBS pH 7.4, shake flask. The procedure, abridged: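 Shake-flask partition of compound between octanol and phosphate-buffered saline at pH 7.4, with each phase quantified by HPLC to give LogD.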
Data set [2] concerns the target T1, recombinant human transglutaminase 2 (Homo sapiens, UniProt P21980).
T1 construct: purchased Zedira T022
T1 sequence (P21980 1-687): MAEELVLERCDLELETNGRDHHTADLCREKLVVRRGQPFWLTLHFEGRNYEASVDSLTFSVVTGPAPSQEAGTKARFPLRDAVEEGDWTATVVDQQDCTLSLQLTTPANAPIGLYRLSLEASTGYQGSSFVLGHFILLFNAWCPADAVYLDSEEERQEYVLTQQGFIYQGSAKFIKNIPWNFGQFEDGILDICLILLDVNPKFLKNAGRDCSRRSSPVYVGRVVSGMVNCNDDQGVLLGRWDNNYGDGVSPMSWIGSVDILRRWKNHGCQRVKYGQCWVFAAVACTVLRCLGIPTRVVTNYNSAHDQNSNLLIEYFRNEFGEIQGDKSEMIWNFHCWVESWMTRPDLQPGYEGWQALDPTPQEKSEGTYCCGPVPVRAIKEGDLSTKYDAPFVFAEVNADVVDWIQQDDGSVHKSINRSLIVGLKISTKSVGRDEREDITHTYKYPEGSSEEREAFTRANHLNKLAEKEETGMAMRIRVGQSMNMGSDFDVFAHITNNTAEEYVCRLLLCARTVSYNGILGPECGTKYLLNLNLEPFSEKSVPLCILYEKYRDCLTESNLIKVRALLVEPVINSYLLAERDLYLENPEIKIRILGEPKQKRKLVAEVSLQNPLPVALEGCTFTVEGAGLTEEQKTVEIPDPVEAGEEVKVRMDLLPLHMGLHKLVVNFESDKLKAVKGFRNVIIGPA
Kind of data set: Transglutaminase assay (DCC-assay): incorporation of dansylcadaverine into dimethylcasein. Format: biochemical. The following applies: recombinant human TG2 10 nM; dansylcadaverine incorporation into dimethylcasein; read-out: IC50 TG2. An outline of the steps: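 Recombinant human TG2 (10 nM final) incorporates dansylcadaverine into N,N-dimethylcasein. Reaction mix: 50 mM Tris-HCl, 10 mM CaCl2, 10 mM glutathione, 2.5% glycerol, 16.7 µM dansylcadaverine, 4 µM dimethylcasein, 200 mM NaCl, pH 8.0. Fluorescence (ex 330/em 500 nm) was followed 30 min at 37 °C; the 20–30 min slope, expressed as % of 2% DMSO control, gave IC50.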

Data set [3] in a line: Caco-2 permeability assay (CacoReady kit). In kind it is in vitro ADME. The following applies: human, Caco-2, Caco-2 barrier, CacoReady kit; above 1×10^−6 cm/s classified as permeable. An outline of the steps:
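Read-out is the permeability coefficient Papp, obtained from transport across a Caco-2 barrier prepared from a ready-to-use kit following the manufacturer's instructions.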
A general note: Caco-2 cells form a polarised layer with tight junctions and transporters.

Bounds are passed on as bounds.

Regarding `C=CCNC(=O)C(=O)CC[C@H](NC(=O)c1cc2ccccc2o1)C(=O)Nc1cccn(CC(=O)NC2C3CC4CC(C3)CC2C4)c1=O` (stereo partly drawn) [II-119, (S)-N1-allyl-5-(benzofuran-2-carboxamido)-N6-(1-(2-(2-adamantylamino)-2-oxoethyl)-2-oxo-1,2-dihydropyridin-3-yl)-2-oxohexanediamide], in data set [1], the logD – broadly, lipophilicity at a set pH, counting ionised and neutral species – lay within 3 to 5. Moreover, in data set [2], the IC50 (usually the concentration needed to halve the response being measured) lay in the range of 40 to 400 nM. For the same molecule, the Papp (usually the rate of passage across a membrane or cell layer, normalised by area and donor concentration) in data set [3] lay in the range of 1 to 10 ×10⁻⁶ cm/s.

In data set [1], `CC(C)NC(=O)C(=O)CC[C@H](NC(=O)c1cc2ccccc2o1)C(=O)Nc1cccn(CC(=O)NC2C3CC4CC(C3)CC2C4)c1=O` (stereo partly drawn) [II-120, (S)-2-(benzofuran-2-carboxamido)-N6-isopropyl-N1-(1-(2-(2-adamantylamino)-2-oxoethyl)-2-oxo-1,2-dihydropyridin-3-yl)-5-oxohexanediamide] returned a logD of 3 to 5. For the same molecule, the half-inhibitory concentration (IC50) in data set [2] lay in the range of 40 to 400 nM. Further, the Papp in data set [3] is 1 to 10 ×10⁻⁶ cm/s.

`O=C(Cn1cccc(NC(=O)[C@H](CCC(=O)C(=O)NC2CC2)NC(=O)c2cc3ccccc3o2)c1=O)NC1C2CC3CC(C2)CC1C3` (stereo partly drawn) [II-121, (S)-2-(benzofuran-2-carboxamido)-N6-cyclopropyl-N1-(1-(2-(2-adamantylamino)-2-oxoethyl)-2-oxo-1,2-dihydropyridin-3-yl)-5-oxohexanediamide] came in with a logD in data set [1] of 3 to 5. Further, the IC50 in data set [2] was in the range of 40 to 400 nM. In addition, the Papp in data set [3] is 1 to 10 ×10⁻⁶ cm/s.

Take `O=C(Cn1cccc(NC(=O)[C@H](CCC(=O)C(=O)Nc2ccccc2)NC(=O)c2cc3ccccc3o2)c1=O)NC1C2CC3CC(C2)CC1C3` (stereo partly drawn) [II-122, (S)-2-(benzofuran-2-carboxamido)-N1-(1-(2-(2-adamantylamino)-2-oxoethyl)-2-oxo-1,2-dihydropyridin-3-yl)-5-oxo-N6-phenylhexanediamide]: in data set [1], the logD fell in the range of 3 to 5. In data set [2], the IC50 lay in the range of 400 to 2500 nM. The same molecule returned a Papp in data set [3] of 1 to 10 ×10⁻⁶ cm/s.

The molecule `O=C(Cn1cccc(NC(=O)[C@H](CCC(=O)C(=O)NCc2ccccc2)NC(=O)c2cc3ccccc3o2)c1=O)NC1C2CC3CC(C2)CC1C3` (stereo partly drawn) [II-123, (S)-2-(benzofuran-2-carboxamido)-N6-benzyl-N1-(1-(2-(2-adamantylamino)-2-oxoethyl)-2-oxo-1,2-dihydropyridin-3-yl)-5-oxohexanediamide] showed a logD in data set [1] of 3 to 5. Further, in data set [2], the IC50 fell in the range of 400 to 2500 nM. The Papp in data set [3] fell in the range of 1 to 10 ×10⁻⁶ cm/s.

As for `NC(=O)C(=O)CC[C@H](NC(=O)c1cc2ccccc2o1)C(=O)Nc1cccn(CC(=O)NC2C3CC4CC(C3)CC2C4)c1=O` (stereo partly drawn) [II-124, (S)-2-(benzofuran-2-carboxamido)-N1-(1-(2-(2-adamantylamino)-2-oxoethyl)-2-oxo-1,2-dihydropyridin-3-yl)-5-oxohexanediamide], in data set [1], the logD lay within 1 to 3. For the same molecule, the IC50 in data set [2] lay within 40 to 400 nM. In data set [3], this molecule showed an apparent permeability (Papp) of 1 to 10 ×10⁻⁶ cm/s.

On to `NC(=O)C(=O)CC[C@H](NC(=O)c1cc(Cl)sc1Cl)C(=O)Nc1cccn(CC(=O)NC2C3CC4CC(C3)CC2C4)c1=O` (stereo partly drawn) [II-125, (S)-2-(2,5-dichlorothiophene-3-carboxamido)-N1-(1-(2-(2-adamantylamino)-2-oxoethyl)-2-oxo-1,2-dihydropyridin-3-yl)-5-oxohexanediamide], for which, in data set [1], the logD lay in the range of 1 to 3. Further, in data set [2], the IC50 was 40 to 400 nM. In addition, the Papp in data set [3] was in the range of 1 to 10 ×10⁻⁶ cm/s.

The molecule `Cc1nc(C(F)(F)F)sc1C(=O)N[C@@H](CCC(=O)C(N)=O)C(=O)Nc1cccn(CC(=O)NC2C3CC4CC(C3)CC2C4)c1=O` (stereo partly drawn) [II-126, (S)-N1-(1-(2-(2-adamantylamino)-2-oxoethyl)-2-oxo-1,2-dihydropyridin-3-yl)-2-(4-methyl-2-(trifluoromethyl)thiazole-5-carboxamido)-5-oxohexanediamide] yielded a logD in data set [1] of less than 1. Also, the IC50 in data set [2] was 40 to 400 nM. For the same molecule, in data set [3], the Papp lay in the range of 1 to 10 ×10⁻⁶ cm/s.

`Cn1nncc1C(=O)N[C@@H](CCC(=O)C(N)=O)C(=O)Nc1cccn(CC(=O)NC2C3CC4CC(C3)CC2C4)c1=O` (stereo partly drawn) [II-127, (S)-N1-(1-(2-(2-adamantylamino)-2-oxoethyl)-2-oxo-1,2-dihydropyridin-3-yl)-2-(1-methyl-1H-1,2,3-triazole-5-carboxamido)-5-oxohexanediamide] came in with a logD in data set [1] of less than 1. For the same molecule, the IC50 in data set [2] was in the range of 40 to 400 nM. Besides, the Papp in data set [3] was less than 1 ×10⁻⁶ cm/s.

Molecule `CNC(=O)C(=O)CC[C@H](NC(=O)c1cc(Cl)sc1Cl)C(=O)Nc1cccn(CC(=O)N[C@@H]2C[C@H]3CC[C@@H]2C3)c1=O` [II-128, (2S)-N1-(1-(2-((1R,2R,4S)-bicyclo[2.2.1]heptan-2-ylamino)-2-oxoethyl)-2-oxo-1,2-dihydropyridin-3-yl)-2-(2,5-dichlorothiophene-3-carboxamido)-N6-methyl-5-oxohexanediamide] had a logD in data set [1] of 1 to 3. The IC50 in data set [2] is 40 to 400 nM. In data set [3], this molecule displayed a Papp of 1 to 10 ×10⁻⁶ cm/s.

`CNC(=O)C(=O)CC[C@H](NC(=O)c1sc(C(F)(F)F)nc1C)C(=O)Nc1cccn(CC(=O)N[C@@H]2C[C@H]3CC[C@@H]2C3)c1=O` [II-129, (2S)-N1-(1-(2-((1R,2R,4S)-bicyclo[2.2.1]heptan-2-ylamino)-2-oxoethyl)-2-oxo-1,2-dihydropyridin-3-yl)-N6-methyl-2-(4-methyl-2-(trifluoromethyl)thiazole-5-carboxamido)-5-oxohexanediamide]: the logD in data set [1] was 1 to 3. The half-maximal inhibitory concentration (IC50) in data set [2] lay in the range of 40 to 400 nM. The Papp in data set [3] is less than 1 ×10⁻⁶ cm/s.

Consider `CNC(=O)C(=O)CC[C@H](NC(=O)c1cnnn1C)C(=O)Nc1cccn(CC(=O)N[C@@H]2C[C@H]3CC[C@@H]2C3)c1=O` [II-130, (2S)-N1-(1-(2-((1R,2R,4S)-bicyclo[2.2.1]heptan-2-ylamino)-2-oxoethyl)-2-oxo-1,2-dihydropyridin-3-yl)-N6-methyl-2-(1-methyl-1H-1,2,3-triazole-5-carboxamido)-5-oxohexanediamide], for which, in data set [1], the logD is less than 1. In addition, the IC50 in data set [2] is 40 to 400 nM. Besides, the Papp in data set [3] is less than 1 ×10⁻⁶ cm/s.

For `CNC(=O)C(=O)CC[C@H](NC(=O)c1cn[nH]n1)C(=O)Nc1cccn(CC(=O)NC2C3CC4CC(C3)CC2C4)c1=O` (stereo partly drawn) [II-131, (S)-N1-(1-(2-(2-adamantylamino)-2-oxoethyl)-2-oxo-1,2-dihydropyridin-3-yl)-N6-methyl-5-oxo-2-(2H-1,2,3-triazole-4-carboxamido) hexanediamide], the logD in data set [1] was less than 1. The half-maximal inhibitory concentration (IC50) in data set [2] was in the range of 40 to 400 nM. Moreover, the Papp in data set [3] is less than 1 ×10⁻⁶ cm/s.

In the case of `CNC(=O)C(=O)CC[C@H](NC(=O)c1cn(C)nn1)C(=O)Nc1cccn(CC(=O)NC2C3CC4CC(C3)CC2C4)c1=O` (stereo partly drawn) [II-133, (S)-N1-(1-(2-(2-adamantylamino)-2-oxoethyl)-2-oxo-1,2-dihydropyridin-3-yl)-N6-methyl-2-(1-methyl-1H-1,2,3-triazole-4-carboxamido)-5-oxohexanediamide], in data set [1], the logD is less than 1. In addition, the IC50 in data set [2] was in the range of 400 to 2500 nM. For the same molecule, the Papp in data set [3] is 1 to 10 ×10⁻⁶ cm/s.

With `CNC(=O)C(=O)CC[C@H](NC(=O)c1nc[nH]n1)C(=O)Nc1cccn(CC(=O)NC2C3CC4CC(C3)CC2C4)c1=O` (stereo partly drawn) [II-134, (S)-N1-(1-(2-(2-adamantylamino)-2-oxoethyl)-2-oxo-1,2-dihydropyridin-3-yl)-N6-methyl-5-oxo-2-(1H-1,2,4-triazole-3-carboxamido)hexanediamide], in data set [1], the pH-dependent lipophilicity (logD) is less than 1. The IC50 in data set [2] lay within 400 to 2500 nM. Besides, the apparent permeability coefficient (Papp) in data set [3] was less than 1 ×10⁻⁶ cm/s.

In data set [1], `CNC(=O)C(=O)CC[C@H](NC(=O)c1ncn(C)n1)C(=O)Nc1cccn(CC(=O)NC2C3CC4CC(C3)CC2C4)c1=O` (stereo partly drawn) [II-135, (S)-N1-(1-(2-(2-adamantylamino)-2-oxoethyl)-2-oxo-1,2-dihydropyridin-3-yl)-N6-methyl-2-(1-methyl-1H-1,2,4-triazole-3-carboxamido)-5-oxohexanediamide] returned a logD of less than 1. The IC50 in data set [2] lay in the range of 40 to 400 nM. In addition, the Papp in data set [3] fell in the range of 1 to 10 ×10⁻⁶ cm/s.

With `CNC(=O)C(=O)CC[C@H](NC(=O)c1coc2ccccc12)C(=O)Nc1cccn(CC(=O)NC2C3CC4CC(C3)CC2C4)c1=O` (stereo partly drawn) [II-136, (S)-2-(benzofuran-3-carboxamido)-N1-(1-(2-(2-adamantylamino)-2-oxoethyl)-2-oxo-1,2-dihydropyridin-3-yl)-N6-methyl-5-oxohexanediamide], in data set [1], the logD was 1 to 3. Further, the concentration for half-maximal inhibition (IC50) in data set [2] was 40 to 400 nM. The apparent permeability coefficient (Papp) in data set [3] lay in the range of 1 to 10 ×10⁻⁶ cm/s.

The record behind these values is US20240383856A1 (Zedira GmbH, priority 2021, published 2024).
